# Assay results: patent US20250205186A1, “USE OF CHLOROGENIC ACID IN PREPARING MEDICINE OR PHARMACEUTICAL COMPOSITION FOR PREVENTING OR TREATING PAIN” (SICHUAN JIUZHANG BIOLOGICAL SCIENCE AND TECHNOLOGY CO., LTD., priority 2019, published 2025)
# Experiments:
# [1] = system: bone cancer pain in rats (Walker rat breast cancer cells, tibia implant model); test: Radiant heat pain response (pain threshold) in rat tibia implant bone cancer pain model; assay type: in vivo; conditions: for Radiant heat pain threshold compared with the model group: from 7 days after administration, p<0.05
# Experimental: After two SD female rats were intraperitoneally injected with 0.5 mL cancer cells (4×10^4 cells/μL), ascites was collected on the 7th day, and the cells are rinsed 3 times with sterile 0.01 mol/L PBS to adjust to the concentration of 4×10^3 cells/μL for use. 60 SD rats were randomly selected, and after anesthesia, a small 1 cm incision was made in the upper tibial skin. A 10 mL syringe needle was used to puncture and perforate, then a 10 μL syringe was inserted into the bone marrow cavity, and 3 μL cell suspension containing 3×10^3 Walker rat breast cancer cells was slowly injected. The pinhole was sealed with bone wax, and the skin was sutured. After surgery, the rats were placed on a 37° C. hot plate for rewarming. After recovery, rats were returned to the cage for further breeding, to obtain the model group. In addition, 8 SD rats were randomly selected, and an equal volume of PBS solution was injected into the marrow cavity of the left upper tibia. The rest of the operations were the same as the model group, to obtain the sham operation group. Radiation thermal pain response: the rat was placed on a glass plate, and the affected side of the foot was irradiated with a heat radiator. The plantar side of each rat would be tested 3 times at an interval of 5 min. The response time from exposure to paw withdrawal was recorded, and the time to retract the paw was the pain threshold. […] The rats that had been successfully modeled were randomly divided into groups, eight rats for each group, that included high-dose chlorogenic acid group (80 mg/kg), middle-dose chlorogenic acid group (40 mg/kg), low-dose chlorogenic acid group (20 mg/kg), model negative group (N.S normal saline), and sham operation group (N.S normal saline). The rats were intraperitoneally injected with drugs for 15 days in a volume of 0.2 mL/10 g, once a day; the model-negative group and the sham operation group were given the same volume of normal saline. From the second day after administration, the mechanical pain hypersensitivity and radiation thermal pain were investigated before each administration, and the paw withdrawal threshold and the pain threshold were recorded.
# [2] = system: DA; test: DA content in brain tissue by HPLC-EC in bone cancer pain rats; assay type: in vivo, rat; conditions: for DA content in the brain tissue: after 15 days of administration
# Experimental: 60 SD rats were randomly selected, and after anesthesia, a small 1 cm incision was made in the upper tibial skin. A 10 mL syringe needle was used to puncture and perforate, then a 10 μL syringe was inserted into the bone marrow cavity, and 3 μL cell suspension containing […] Walker rat breast cancer cells was slowly injected. The pinhole was sealed with bone wax, and the skin was sutured. After surgery, the rats were placed on a 37° C. hot plate for rewarming. After recovery, rats were returned to the cage for further breeding, to obtain the model group. In addition, 8 SD rats were randomly selected, and an equal volume of PBS solution was injected into the marrow cavity of the left upper tibia. The rest of the operations were the same as the model group, to obtain the sham operation group. The rats that had been successfully modeled were randomly divided into groups, eight rats for each group, that included high-dose chlorogenic acid group (80 mg/kg), middle-dose chlorogenic acid group (40 mg/kg), low-dose chlorogenic acid group (20 mg/kg), model negative group (N.S normal saline), and sham operation group (N.S normal saline). The rats were intraperitoneally injected with drugs for 15 days in a volume of 0.2 mL/10 g, once a day; the model-negative group and the sham operation group were given the same volume of normal saline. After the rats were sacrificed, the hypothalamus was quickly separated, homogenized in an ice bath with perchloric acid, and centrifuged. The supernatant was collected, and the contents of NE, DA, and 5-HT were determined by HPLC-EC method (Hou […], Wang Na, et al, Effects of progesterone on morphine-induced conditioned place preference and levels of monoamine transmitters in rat brain. Chinese Journal of Pharmacology, 2006, 22(8), 980-983).
structure (smiles),measurement,setting,value
O=C(/C=C/c1ccc(O)c(O)c1)O[C@@H]1C[C@](O)(C(=O)O)C[C@@H](O)[C@H]1O [Chlorogenic acid],Pain threshold,"[1]; 20 mg/kg ip once a day, 2 d",3.86 s
same,Pain threshold,"[1]; 20 mg/kg ip once a day, 3 d",4.11 s
same,Pain threshold,"[1]; 20 mg/kg ip once a day, 4 d",3.93 s
same,Pain threshold,"[1]; 20 mg/kg ip once a day, 5 d",9.53 s
same,Pain threshold,"[1]; 20 mg/kg ip once a day, 6 d",16.66 s
same,Pain threshold,"[1]; 20 mg/kg ip once a day, 7 d",17.89 s
same,Pain threshold,"[1]; 20 mg/kg ip once a day, 8 d",16.72 s
same,Pain threshold,"[1]; 20 mg/kg ip once a day, 9 d",15.45 s
same,Pain threshold,"[1]; 20 mg/kg ip once a day, 10 d",16.74 s
same,Pain threshold,"[1]; 20 mg/kg ip once a day, 11 d",15.52 s
same,Pain threshold,"[1]; 20 mg/kg ip once a day, 12 d",15.97 s
same,Pain threshold,"[1]; 20 mg/kg ip once a day, 13 d",16.35 s
same,Pain threshold,"[1]; 20 mg/kg ip once a day, 14 d",16.22 s
same,Pain threshold,"[1]; 20 mg/kg ip once a day, 15 d",16.75 s
same,Radiant heat pain threshold compared with the model group,[1]; 20 mg/kg,significant difference
same,Pain threshold,"[1]; 40 mg/kg ip once a day, 2 d",3.62 s
same,Pain threshold,"[1]; 40 mg/kg ip once a day, 3 d",3.52 s
same,Pain threshold,"[1]; 40 mg/kg ip once a day, 4 d",6.36 s
same,Pain threshold,"[1]; 40 mg/kg ip once a day, 5 d",12.52 s
same,Pain threshold,"[1]; 40 mg/kg ip once a day, 6 d",20.53 s
same,Pain threshold,"[1]; 40 mg/kg ip once a day, 7 d",20.49 s
same,Pain threshold,"[1]; 40 mg/kg ip once a day, 8 d",19.83 s
same,Pain threshold,"[1]; 40 mg/kg ip once a day, 9 d",21.21 s
same,Pain threshold,"[1]; 40 mg/kg ip once a day, 10 d",24.32 s
same,Pain threshold,"[1]; 40 mg/kg ip once a day, 11 d",20.59 s
same,Pain threshold,"[1]; 40 mg/kg ip once a day, 12 d",21.41 s
same,Pain threshold,"[1]; 40 mg/kg ip once a day, 13 d",22.39 s
same,Pain threshold,"[1]; 40 mg/kg ip once a day, 14 d",21.74 s
same,Pain threshold,"[1]; 40 mg/kg ip once a day, 15 d",20.88 s
same,Radiant heat pain threshold compared with the model group,[1]; 40 mg/kg,significant difference
same,Pain threshold,"[1]; 80 mg/kg ip once a day, 2 d",4.17 s
same,Pain threshold,"[1]; 80 mg/kg ip once a day, 3 d",4.24 s
same,Pain threshold,"[1]; 80 mg/kg ip once a day, 4 d",4.09 s
same,Pain threshold,"[1]; 80 mg/kg ip once a day, 5 d",5.52 s
same,Pain threshold,"[1]; 80 mg/kg ip once a day, 6 d",8.15 s
same,Pain threshold,"[1]; 80 mg/kg ip once a day, 7 d",8.22 s
same,Pain threshold,"[1]; 80 mg/kg ip once a day, 8 d",7.98 s
same,Pain threshold,"[1]; 80 mg/kg ip once a day, 9 d",7.59 s
same,Pain threshold,"[1]; 80 mg/kg ip once a day, 10 d",8.03 s
same,Pain threshold,"[1]; 80 mg/kg ip once a day, 11 d",8.05 s
same,Pain threshold,"[1]; 80 mg/kg ip once a day, 12 d",7.76 s
same,Pain threshold,"[1]; 80 mg/kg ip once a day, 13 d",7.98 s
same,Pain threshold,"[1]; 80 mg/kg ip once a day, 14 d",8.52 s
same,Pain threshold,"[1]; 80 mg/kg ip once a day, 15 d",8.38 s
same,Threshold compared with the model group (radiant heat pain section),"[1]; 80 mg/kg, p>0.05",not statistically significant
same,DA content in the brain tissue,[2]; 20 mg/kg ip once a day,1.38 ± 0.21 nmol/g
same,DA content in brain tissue compared with the model-negative group,"[2]; 20 mg/kg, p<0.05",the difference was significant
same,DA content in the brain tissue,[2]; 40 mg/kg ip once a day,1.46 ± 0.08 nmol/g
same,DA content in brain tissue compared with the model-negative group,"[2]; 40 mg/kg, p<0.05",the difference was significant
same,DA content in the brain tissue,[2]; 80 mg/kg ip once a day,1.15 ± 0.12 nmol/g
same,DA content in brain tissue compared with the model-negative group,"[2]; 80 mg/kg, p>0.05",no significant difference
